Test results taken from PubChem BioAssay AID256 (DTP/NCI, 2004).
Values joined by “and” are separate entries in the source; they are usually repeats but may differ in a detail not shown here. Equal entries are not always repeated. Toxic doses and inconclusive results are not listed. Rule for the calls: active = survival T/C of 150% or more; inactive = T/C below 125% in these data.

Test system: CD2F1 mice, L1210 leukemia ip, survival T/C
Assay: NCI In Vivo Anticancer Drug Screen. Data for tumor model L1210 Leukemia (intraperitoneal) in CD2F1 (CDF1) mice
Conditions: higher = longer survival
Method in brief: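 Implant tumor; dose compound or vehicle; measure endpoint in both groups; report treated divided by control.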

[1] = endpoint: mean survival time, dose: 100.0 mg/kg/injection, schedule: Q01DX009 (ip), vehicle: saline with Tween-80
[2] = endpoint: mean survival time, dose: 200.0 mg/kg/injection, schedule: Q01DX009 (ip), vehicle: saline with Tween-80
[3] = endpoint: mean survival time, dose: 400.0 mg/kg/injection, schedule: Q01DX009 (ip), vehicle: saline with Tween-80
[4] = endpoint: mean survival time, dose: 100.0 mg/kg/injection, schedule: Q01DX001 (ip), vehicle: saline
[5] = endpoint: mean survival time, dose: 200.0 mg/kg/injection, schedule: Q01DX001 (ip), vehicle: saline
[6] = endpoint: mean survival time, dose: 50.0 mg/kg/injection, schedule: Q01DX009 (ip), vehicle: saline with Tween-80
[7] = endpoint: mean survival time, dose: 100.0 mg/kg/injection, schedule: Q04DX003 (ip), vehicle: saline with Tween-80
[8] = endpoint: mean survival time, dose: 200.0 mg/kg/injection, schedule: Q04DX003 (ip), vehicle: saline with Tween-80
[9] = endpoint: mean survival time, dose: 100.0 mg/kg/injection, schedule: Q04DX002 (ip), vehicle: saline with Tween-80
[10] = endpoint: mean survival time, dose: 200.0 mg/kg/injection, schedule: Q04DX002 (ip), vehicle: saline with Tween-80
[11] = endpoint: mean survival time, dose: 100.0 mg/kg/injection, schedule: Q04DX003 (ip), vehicle: Klucel (hydroxypropylcellulose) (HPC)
[12] = endpoint: mean survival time, dose: 200.0 mg/kg/injection, schedule: Q04DX003 (ip), vehicle: Klucel (hydroxypropylcellulose) (HPC)
[13] = endpoint: mean survival time, dose: 400.0 mg/kg/injection, schedule: Q04DX003 (ip), vehicle: Klucel (hydroxypropylcellulose) (HPC)

Measured: T/C

CCCCCCC[CH2][Sn][CH2]CCCCCCC.Nc1ncnc2c1ncn2C1OC(CO)C2[OH+][OH+]C21 (stereo not drawn)
inactive: endpoint: mean survival time, dose: 12.5 mg/kg/injection, schedule: Q01DX005 (ip), vehicle: other 98 % of control | endpoint: mean survival time, dose: 25.0 mg/kg/injection, schedule: Q01DX005 (ip), vehicle: other 110 % of control

Clc1ccc2c(c1)Cc1cc(N(CCBr)CCBr)ccc1-2
inactive: [1] 104 % of control | [2] 106 % of control | [3] 110 % of control

O=C1C=C(O)c2cc(Br)ccc2C1=O
inactive: [4] 102 % of control | [5] 98 % of control | endpoint: mean survival time, dose: 400.0 mg/kg/injection, schedule: Q01DX001 (ip), vehicle: saline 98 % of control

CNC(=O)NCc1ccc(C(=O)NC(C)C)cc1
inactive: endpoint: mean survival time, dose: 50.0 mg/kg/injection, schedule: Q01DX009 (ip), vehicle: other 100 % of control | endpoint: mean survival time, dose: 100.0 mg/kg/injection, schedule: Q01DX009 (ip), vehicle: other 101 % of control | endpoint: mean survival time, dose: 200.0 mg/kg/injection, schedule: Q01DX009 (ip), vehicle: other 100 % of control | endpoint: mean survival time, dose: 400.0 mg/kg/injection, schedule: Q01DX009 (ip), vehicle: other 89 % of control

CC(=O)c1cc(C)[nH]c1C
inactive: [6] 101 % of control | [1] 100 % of control | [7] 102 % of control | [2] 103 % of control | [8] 96 % of control | endpoint: median survival time, dose: 100.0 mg/kg/injection, schedule: Q01DX001 (ip), vehicle: saline with Tween-80 100 % of control | endpoint: median survival time, dose: 200.0 mg/kg/injection, schedule: Q01DX001 (ip), vehicle: saline with Tween-80 100 % of control

O=C(NC(Cc1ccc(I)cc1)C(=O)O)c1ccc(Br)cc1 (stereo not drawn)
inactive: endpoint: median survival time, dose: 25.0 mg/kg/injection, schedule: Q01DX009 (ip), vehicle: sodium bicarbonate 98 % of control | endpoint: median survival time, dose: 50.0 mg/kg/injection, schedule: Q01DX009 (ip), vehicle: sodium bicarbonate 101 % of control | endpoint: median survival time, dose: 100.0 mg/kg/injection, schedule: Q01DX009 (ip), vehicle: sodium bicarbonate 101 % of control | endpoint: median survival time, dose: 200.0 mg/kg/injection, schedule: Q01DX009 (ip), vehicle: sodium bicarbonate 96 % of control

COc1ccccc1F
inactive: endpoint: mean survival time, dose: 10.0 mg/kg/injection, schedule: Q01DX009 (ip), vehicle: saline with Tween-80 100 % of control | endpoint: mean survival time, dose: 20.0 mg/kg/injection, schedule: Q01DX009 (ip), vehicle: saline with Tween-80 102 % of control | endpoint: mean survival time, dose: 40.0 mg/kg/injection, schedule: Q01DX009 (ip), vehicle: saline with Tween-80 102 % of control

C=C(Cl)C(C)(C)C
inactive: endpoint: mean survival time, dose: 25.0 mg/kg/injection, schedule: Q01DX001 (ip), vehicle: saline 98 % of control | endpoint: mean survival time, dose: 50.0 mg/kg/injection, schedule: Q01DX001 (ip), vehicle: saline 104 % of control | [4] 100 % of control

O=S(=O)(SC(S(=O)(=O)c1ccccc1)S(=O)(=O)c1ccccc1)c1ccccc1
inactive: endpoint: mean survival time, dose: 12.5 mg/kg/injection, schedule: Q01DX009 (ip), vehicle: Klucel (hydroxypropylcellulose) (HPC) 94 % of control and 105 % of control | endpoint: mean survival time, dose: 25.0 mg/kg/injection, schedule: Q01DX009 (ip), vehicle: Klucel (hydroxypropylcellulose) (HPC) 97 % of control and 110 % of control | endpoint: mean survival time, dose: 50.0 mg/kg/injection, schedule: Q01DX009 (ip), vehicle: Klucel (hydroxypropylcellulose) (HPC) 98 % of control and 102 % of control | endpoint: mean survival time, dose: 100.0 mg/kg/injection, schedule: Q01DX009 (ip), vehicle: Klucel (hydroxypropylcellulose) (HPC) 96 % of control | endpoint: mean survival time, dose: 200.0 mg/kg/injection, schedule: Q01DX009 (ip), vehicle: Klucel (hydroxypropylcellulose) (HPC) 92 % of control and 104 % of control | endpoint: mean survival time, dose: 400.0 mg/kg/injection, schedule: Q01DX009 (ip), vehicle: Klucel (hydroxypropylcellulose) (HPC) 113 % of control and 94 % of control | endpoint: median survival time, dose: 100.0 mg/kg/injection, schedule: Q01DX009 (ip), vehicle: Klucel (hydroxypropylcellulose) (HPC) 103 % of control | endpoint: median survival time, dose: 200.0 mg/kg/injection, schedule: Q01DX009 (ip), vehicle: Klucel (hydroxypropylcellulose) (HPC) 102 % of control | endpoint: median survival time, dose: 400.0 mg/kg/injection, schedule: Q01DX009 (ip), vehicle: Klucel (hydroxypropylcellulose) (HPC) 102 % of control | endpoint: median survival time, dose: 800.0 mg/kg/injection, schedule: Q01DX009 (ip), vehicle: Klucel (hydroxypropylcellulose) (HPC) 92 % of control

CCOC(=O)C(=O)C1CCc2c(ccc3ccccc23)C1=O (stereo not drawn)
inactive: endpoint: mean survival time, dose: 50.0 mg/kg/injection, schedule: Q04DX002 (ip), vehicle: saline with Tween-80 93 % of control | endpoint: mean survival time, dose: 100.0 mg/kg/injection, schedule: Q01DX001 (ip), vehicle: Klucel (hydroxypropylcellulose) (HPC) 91 % of control | [9] 96 % of control | endpoint: mean survival time, dose: 200.0 mg/kg/injection, schedule: Q01DX001 (ip), vehicle: Klucel (hydroxypropylcellulose) (HPC) 93 % of control | [10] 96 % of control

Cc1ccc[n+](CC(O)c2ccc(C(O)C[n+]3cccc(C)c3)cc2)c1 (stereo not drawn)
inactive: endpoint: mean survival time, dose: 0.08 mg/kg/injection, schedule: Q04DX003 (ip), vehicle: saline 101 % of control | endpoint: mean survival time, dose: 0.15 mg/kg/injection, schedule: Q04DX003 (ip), vehicle: saline 101 % of control

O=C(Nc1ccc(Br)c2c(NC(=O)c3ccccc3)ccc(Br)c12)c1ccccc1
inactive: [1] 88 % of control and 93 % of control | [2] 97 % of control | [3] 93 % of control

CNC(=O)Oc1coc(CCl)cc1=O
inactive: endpoint: mean survival time, dose: 25.0 mg/kg/injection, schedule: Q01DX009 (ip), vehicle: saline with Tween-80 98 % of control | [6] 107 % of control | endpoint: mean survival time, dose: 50.0 mg/kg/injection, schedule: Q04DX003 (ip), vehicle: saline with Tween-80 97 % of control | [1] 101 % of control | [7] 101 % of control

C#CC(O)C(CC)CCCC (stereo not drawn)
inactive: [6] 99 % of control | [1] 94 % of control

CCCCCCCCOCCOCCOCCOCCOCCCCCCCC
inactive: [9] 102 % of control | [10] 98 % of control | endpoint: mean survival time, dose: 400.0 mg/kg/injection, schedule: Q04DX002 (ip), vehicle: saline with Tween-80 102 % of control

O=C1C(c2ccccc2)=S=C2Sc3ccccc3N12
inactive: [11] 102 % of control | [12] 103 % of control | [13] 96 % of control

CCOC(=O)N1C(C(=O)c2ccc(C)cc2)N(C2CCCCC2)C(c2ccccc2)N1C(=O)OCC (stereo not drawn)
inactive: [1] 90 % of control | [7] 97 % of control | [2] 93 % of control | [8] 92 % of control | [3] 90 % of control | endpoint: mean survival time, dose: 400.0 mg/kg/injection, schedule: Q04DX003 (ip), vehicle: saline with Tween-80 93 % of control

OCC1OC(n2ncc3c(NO)ncnc32)C(O)C1O (stereo not drawn)
inactive: endpoint: mean survival time, dose: 1.56 mg/kg/injection, schedule: Q01DX005 (ip), vehicle: water 103 % of control | endpoint: mean survival time, dose: 3.13 mg/kg/injection, schedule: Q01DX005 (ip), vehicle: water 107 % of control | endpoint: mean survival time, dose: 6.25 mg/kg/injection, schedule: Q01DX005 (ip), vehicle: water 103 % of control | endpoint: mean survival time, dose: 12.5 mg/kg/injection, schedule: Q01DX005 (ip), vehicle: water 114 % of control | endpoint: mean survival time, dose: 25.0 mg/kg/injection, schedule: Q01DX005 (ip), vehicle: water 88 % of control

O=C1CC(c2ccccc2)CO1 (stereo not drawn)
inactive: [4] 106 % of control | [5] 100 % of control

[Cl][Pt]([Cl])[Cl].[NH-]C1CN2CCC1CC2 (stereo not drawn)
inactive: endpoint: mean survival time, dose: 2.5 mg/kg/injection, schedule: Q04DX003 (ip), vehicle: saline with Tween-80 119 % of control | endpoint: mean survival time, dose: 5.0 mg/kg/injection, schedule: Q04DX003 (ip), vehicle: saline with Tween-80 122 % of control

CCc1c2cc(OC)c(OC)cc2cc2c3cc(OC)c(OC)cc3cc[n+]12 (tested in a mixture with another compound)
inactive: endpoint: mean survival time, dose: 14.6 mg/kg/injection, schedule: Q01DX009 (ip), vehicle: saline with Tween-80 120 % of control | endpoint: mean survival time, dose: 33.0 mg/kg/injection, schedule: Q01DX009 (ip), vehicle: saline with Tween-80 117 % of control | endpoint: mean survival time, dose: 50.0 mg/kg/injection, schedule: Q01DX009 (ip), vehicle: saline 122 % of control | endpoint: mean survival time, dose: 50.0 mg/kg/injection, schedule: Q04DX003 (ip), vehicle: saline 122 % of control | endpoint: mean survival time, dose: 100.0 mg/kg/injection, schedule: Q01DX009 (ip), vehicle: saline 104 % of control | endpoint: mean survival time, dose: 100.0 mg/kg/injection, schedule: Q04DX003 (ip), vehicle: saline 121 % of control and 123 % of control | endpoint: mean survival time, dose: 200.0 mg/kg/injection, schedule: Q04DX003 (ip), vehicle: saline 101 % of control | endpoint: mean survival time, dose: 400.0 mg/kg/injection, schedule: Q04DX003 (ip), vehicle: saline 121 % of control and 98 % of control

C=CCOc1c(C(=O)OCC)cnc2c1cnn2CC
inactive: [11] 108 % of control | [12] 108 % of control | [13] 101 % of control
